In one assay the test system is SMN1 pre-mRNA exon 7. As to the kind of experiment: S100 extract complementation in vitro splicing, SMN1 pre-mRNA. In kind it is biochemical, human. The note with it: S100 extract complemented with 4 pmol recombinant SR protein, 4 hours. As for the experimental part: (§1) Finally, splicing of SNM1 and SMN2 pre-mRNAs in S100-complementation experiments was used to test the SR protein specificity of the ESEs. S100 extract is a post-nuclear, post-ribosomal fraction capable of supporting in vitro splicing only when complemented with one or more SR proteins. When the SMN pre-mRNAs were incubated in S100 extract alone, spliced products were barely detectable (FIG. 17b, lanes 5-8).
(§2) 5′ capped, T7 runoff transcripts from purified PCR products were uniformly labeled with [α-^32P] UTP, purified by denaturing PAGE, and spliced in HeLa cell nuclear or S100 extracts, as described. Briefly, 10 fmol of transcript was incubated in 12.5-μl standard splicing reactions containing 3 μl of nuclear extract or 2 μl of S100 extract complemented with 4 pmol of recombinant SC35 or SF2/ASF. The MgCl2 concentration was 2.4 mM for BRCA1 transcripts and 1.6 mM for SMN transcripts. After incubation at 30° C. for 4 hours, RNA was extracted and analyzed on 12% (BRCA1) or 8% (SMN) denaturing polyacrylamide gels, followed by autoradiography and phosphorimager analysis. Exon inclusion was calculated as a percentage of the total amount of spliced mRNAs, i.e., included mRNA×100/(included mRNA+skipped mRNA).

Another assay relates to SMN2 pre-mRNA exon 7. The assay is described as follows: S100 extract complementation in vitro splicing, SMN2 pre-mRNA. It counts as biochemical, human. Here is the method: as §1, §2
For another assay, the system named is β-globin pre-mRNA. The assay is described as follows: S100 extract complementation with β-globin pre-mRNA. In kind it is biochemical. Particulars: data not shown.

In the case of “SF2/ASF: recombinant human SR protein SF2/ASF used to complement S100 extract”, the “exon 7 inclusion, SMN1 pre-mRNA” value in the assay on SMN1 pre-mRNA exon 7 was “promoted exon 7 inclusion”. The “exon 7 inclusion, SMN2 pre-mRNA” value in the assay on SMN2 pre-mRNA exon 7 (S100 extract complemented with 4 pmol recombinant SR protein, 4 hours) was “much less efficiently”. The “exon 7 inclusion, SMN2 context, high concentrations of SR protein” value with SMN2 pre-mRNA exon 7 (S100 extract, high concentrations, data not shown) is given as “promoted significant inclusion”.

B1: SC35: recombinant human SR protein SC35 used to complement S100 extract (protein, UniProt Q01130 2-221, looked up)
Serine/arginine-rich splicing …: SYGRPPPDVEGMTSLKVDNLTYRTSPDTLRRVFEKYGRVGDVYIPRDRYTKESRGFAFVRFHDKRDAEDAMDAMDGAVLDGRELRVQMARYGRPPDSHHSRRGPPPRRYGGGGYGRRSRSPRRRRRSRSRSRSRSRSRSRSRYSRSKSRSRTRSRSRSTSKSRSARRSKSKSSSVSRSRSRSRSRSRSRSPPPVSKRESKSRSRSKSPPKSPEEEGAVSS
Take B1: in the assay with SMN1 pre-mRNA exon 7, the “exon 7 inclusion, SMN1 pre-mRNA” value is given as “failed to drive exon 7 inclusion”. In the assay with β-globin pre-mRNA, the “complementation of S100 extract” value was “efficiently complemented S100 extract”.
